How the values were obtained:
human STING (HAQ) [1] = target: T1, human STING (HAQ) (Homo sapiens, UniProt Q86WV6, G230A/H232R/R293Q); experiment: biochemical; format: binding; conditions: for DSF huSTING (HAQ) ΔTm (° C.): 1 μM protein, compound at 100 μM
Description: (§1) DSF monitors thermal unfolding of protein in the presence of a fluorescent dye and is typically performed using a real-time PCR instrument. The temperature at which a protein unfolds is measured by an increase in the fluorescence of a dye with affinity for hydrophobic parts of the protein that are gradually exposed during unfolding. The fluorescence of the dye is quenched in aqueous environments, but when the dye associates with hydrophobic sites on the unfolded protein, its fluorescence increases. The fluorescence intensity is plotted as a function of the temperature, generating a sigmoidal curve that can be described by a two-state transition. The inflection point of the transition curve (Tm) is calculated using simple equations such as that of Boltzman.
(§2) Sealed plates were then placed into a Bio-Rad CFX96/C1000 thermocycler and FRET scanning mode (λ^excitation of 490 nm and reads at λ^emission of 570 nm) was used to measure fluorescence intensity. […] The melting point (Tm) obtained for STING protein alone was subtracted from Tm obtained for protein incubated with ligand to generate ΔTm values listed in the table below.
(§3) These additional compounds were tested as described above, however the protein concentration was 2 μM.

huSTING (WT) [2] = target: T2, huSTING (WT) (Homo sapiens (Human), UniProt Q86WV6, H232R); experiment: Differential scanning fluorimetry (DSF), huSTING (WT); format: binding; conditions: read-out: DSF huSTING (WT) ΔTm (° C.)
Description: as §1, §2, §3
Target sequence in this assay (Q86WV6 other isoform, or with tags, fused parts or gaps, stated change not applied): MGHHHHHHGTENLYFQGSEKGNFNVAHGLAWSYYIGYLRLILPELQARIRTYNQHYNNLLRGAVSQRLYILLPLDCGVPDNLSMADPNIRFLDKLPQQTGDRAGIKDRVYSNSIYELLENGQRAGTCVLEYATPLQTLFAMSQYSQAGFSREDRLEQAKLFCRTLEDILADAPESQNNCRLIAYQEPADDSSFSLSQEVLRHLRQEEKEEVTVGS

huSTING (HAQ) = huSTING (HAQ) (Homo sapiens (Human), UniProt Q86WV6, G230A/H232R/R293Q/R71H); experiment: THP-1 reporter cell line assay, THP-1 STING Lucia ISG cells; format: cell-based; conditions: THP-1 STING Lucia ISG cells; 24 h; top concentration 50 μM; read-out: Cellular EC50 huSTING (HAQ)
Chain of huSTING (HAQ) (Q86WV6 whole entry R71H/G230A/H232R/R293Q): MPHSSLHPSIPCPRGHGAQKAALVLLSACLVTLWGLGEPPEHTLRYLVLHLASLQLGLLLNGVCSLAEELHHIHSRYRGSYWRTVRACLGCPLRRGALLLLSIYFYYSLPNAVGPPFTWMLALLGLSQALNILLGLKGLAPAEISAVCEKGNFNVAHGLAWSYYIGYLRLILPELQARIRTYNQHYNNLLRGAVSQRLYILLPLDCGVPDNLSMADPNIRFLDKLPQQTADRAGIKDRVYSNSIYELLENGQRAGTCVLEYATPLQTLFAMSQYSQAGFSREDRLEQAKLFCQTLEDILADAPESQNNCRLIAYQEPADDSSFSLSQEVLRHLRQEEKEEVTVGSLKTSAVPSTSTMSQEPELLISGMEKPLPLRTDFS

huSTING (WT) [3] = target: T2, huSTING (WT); experiment: THP-1 reporter cell line assay, THP-1-Dual KI-hSTING-R232 cells; format: cell-based; conditions: read-out: Cellular EC50 huSTING (WT)
Target sequence in this assay (Q86WV6 whole entry H232R): as the sequence (Q86WV6 whole entry R71H/G230A/H232R/R293Q) above, with H71R, A230G, Q293R counted along it

human STING (HAQ) [4] = target: T1, human STING (HAQ); conditions: read-out: SPR (HAQ) KD; 25° C.

T1 sequence (Q86WV6 whole entry G230A/H232R/R293Q, looked up): as the sequence (Q86WV6 whole entry R71H/G230A/H232R/R293Q) above, with H71R counted along it

Compound | DSF huSTING (HAQ) ΔTm (° C.) (human STING (HAQ) [1]) [°C] | ΔTm at 100 µM (huSTING (WT) [2]) [°C] | EC50 (huSTING (HAQ)) [µM] | EC50 (huSTING (WT) [3]) [µM] | Kd (human STING (HAQ) [4]) [µM] | ΔTm at 100 µM (human STING (HAQ) [1]; read-out: DSF huSTING (HAQ) ΔTm (° C.)) [°C]
NC(=O)c1ccc(OCc2c(C(=O)O)sc3cccc(F)c23)cc1C(F)(F)F [Example 52, 3-((4-Carbamoyl-3-(trifluoromethyl)phenoxy)methyl)-4-fluorobenzo[b]thiophene-2-carboxylic acid] | −1.22 | -2.15 | > 50 | > 50 | 260 | 
NC(=O)c1ccc(OCc2c(C(=O)O)sc3cccc(Cl)c23)c(Cl)c1 [Example 38, 3-((4-Carbamoyl-2-chlorophenoxy)methyl)-4-chlorobenzo[b]thiophene-2-carboxylic acid] | 6.02 | -1.4 | > 50 | > 50 | 16.4 | 
COc1cc(C(N)=O)cc(OC)c1OCc1c(C(=O)O)sc2cccc(Cl)c12 [Example 42, 3-((4-Carbamoyl-2,6-dimethoxyphenoxy)methyl)-4-chlorobenzo[b]thiophene-2-carboxylic acid] | 2.83 | -0.64 |  |  | 80.5 | 
COc1cc(C(N)=O)cc(C)c1OCc1c(C(=O)O)sc2cccc(Cl)c12 [Example 73, 3-((4-carbamoyl-2-methoxy-6-methylphenoxy)methyl)-4-chlorobenzo[b]thiophene-2-carboxylic acid] | 1.79 | -1.03 |  |  | 67 | 
NC(=O)c1c(F)cc(OCc2c(C(=O)O)sc3cccc(Cl)c23)cc1F [Example 28, 3-((4-Carbamoyl-3,5-difluorophenoxy)methyl)-4-chlorobenzo[b]thiophene-2-carboxylic acid] | 6.93 | 1.19 | > 50 | > 50 | 10.9 | 
NC(=O)c1ccc(OCc2c(C(=O)O)sc3cccc(Cl)c23)cc1Br [Example 64, 3-((3-Bromo-4-carbamoylphenoxy)methyl)-4-chlorobenzo[b]thiophene-2-carboxylic acid] | 6.79 | 2.73 | > 50 | > 50 | 6.2 | 
NC(=O)c1ccc(OCc2c(C(=O)O)sc3cccc(Cl)c23)cn1 [Example 46, 3-(((6-Carbamoylpyridin-3-yl)oxy)methyl)-4-chlorobenzo[b]thiophene-2-carboxylic acid] | 7.26 | 1.77 | > 50 | > 50 | 9.7 | 
NC(=O)c1ccc(CCc2c(C(=O)O)sc3cccc(F)c23)cc1 [Example 88, 3-(4-Carbamoylphenethyl)-4-fluorobenzo[b]thiophene-2-carboxylic acid] | 0.97 | -1.07 | > 50 | > 50 | 533 | 
NC(=O)c1cc(F)c(OCc2c(C(=O)O)sc3cccc(F)c23)c(Br)c1 [Example 56, 3-((2-Bromo-4-carbamoyl-6-fluorophenoxy)methyl)-4-fluorobenzo[b]thiophene-2-carboxylic acid] | 4.48 | -1.29 | > 50 | > 50 | 29 | 
NC(=O)c1ccc(OCc2c(C(=O)O)sc3ccc(F)c(F)c23)cc1 [Example 16, 3-((4-Carbamoylphenoxy)methyl)-4,5-difluorobenzo[b]thiophene-2-carboxylic acid] | 10.12 | 3.49 | > 50 | > 50 | 2.19 | 
NC(=O)c1ccc(OCc2c(C(=O)O)sc3cc(Cl)ccc23)cc1 [Example 10, 3-((4-carbamoylphenoxy)methyl)-6-chlorobenzo[b]thiophene-2-carboxylic acid] | 1.7 | -2.34 | > 50 | > 50 | 187 | 
NC(=O)c1ccc(OCc2c(C(=O)O)sc3cccc(F)c23)cc1 [Example 1, 3-((4-Carbamoylphenoxy)methyl)-4-fluorobenzo[b]thiophene-2-carboxylic acid] | 7.78 | 0.99 | > 50 | > 50 | 32 | 
NC(=O)c1ccc(OCc2c(C(=O)O)sc3c(Cl)cccc23)cc1 [Example 12, 3-((4-Carbamoylphenoxy)methyl)-7-chlorobenzo[b]thiophene-2-carboxylic acid] | 9 | 3.29 | > 50 | > 50 | 5.95 | 
Nc1noc2cc(OCc3c(C(=O)O)sc4cccc(Cl)c34)ccc12 [Example 48, 3-(((3-Aminobenzo[d]isoxazol-6-yl)oxy)methyl)-4-chlorobenzo[b]thiophene-2-carboxylic acid] | 1.92 | -4.63 | > 50 | > 50 | 16.3 | 
COc1cc(C(N)=O)ccc1OCc1c(C(=O)O)sc2cccc(Cl)c12 [Example 30, 3-((4-Carbamoyl-2-methoxyphenoxy)methyl)-4-chlorobenzo[b]thiophene-2-carboxylic acid] | 5.4 | -0.32 | 36.3 | > 50 | 22.1 | 
N#Cc1cc(C(N)=O)ccc1OCc1c(C(=O)O)sc2cccc(Cl)c12 [Example 44, 3-((4-Carbamoyl-2-cyanophenoxy)methyl)-4-chlorobenzo[b]thiophene-2-carboxylic acid] | 7.64 | 1.3 |  |  | 7.95 | 
NC(=O)c1cc(F)c(OCc2c(C(=O)O)sc3cccc(F)c23)c(F)c1 [Example 57, 3-((4-Carbamoyl-2,6-difluorophenoxy)methyl)-4-fluorobenzo[b]thiophene-2-carboxylic acid] | 10.74 | 3.43 | > 50 | > 50 | 9.05 | 
NC(=O)c1cc(Cl)c(OCc2c(C(=O)O)sc3cccc(Cl)c23)c(Cl)c1 [Example 40, 3-((4-Carbamoyl-2,6-dichlorophenoxy)methyl)-4-chlorobenzo[b]thiophene-2-carboxylic acid] | 9.91 | 3.66 | > 50 | 39.7 | 2.8 | 
CCOC(=O)c1sc2cccc(F)c2c1COc1ccc(C(N)=O)cc1F [Example 58, Ethyl 3-((4-carbamoyl-2-fluorophenoxy)methyl)-4-fluorobenzo[b]thiophene-2-carboxylate] |  |  | 9.19 | 27.7 | > 10000 | 0.43
NC(=O)c1ccc(OCc2c(C(=O)OCc3ccccc3)sc3cccc(F)c23)cc1 [Example 3, Benzyl 3-((4-carbamoylphenoxy)methyl)-4-fluorobenzo[b]thiophene-2-carboxylate] | −0.47 |  | 2.94 | > 50 | 3500 | 
N#Cc1cccc2sc(C(=O)O)c(COc3ccc(C(N)=O)cc3)c12 [Example 63, 3-((4-Carbamoylphenoxy)methyl)-4-cyanobenzo[b]thiophene-2-carboxylic acid] | 8.07 | 1.88 |  |  | 9.15 | 

From US11613525B2 (CTXT PTY LIMITED, priority 2018, dated 2023)
